Measurements reported in patent US8202873B2, “2-[4-(pyrazol-4-ylalkyl)piperazin-1-yl]-3-phenyl pyrazines as 5-HT7 receptor antagonists” (Eli Lilly and Company, priority 2007, dated 2012).
Marks after values point to notes of the source that are not given here.

Experiments:
adult male CF-1 mice = assay: Foot electroshock stress induced cGMP elevation model for anxiety; assay type: in vivo; settings: normalized to vehicle/no stress group, mean
From the text: The foot electroshock stress induced cGMP elevation model for anxiety is an established anxiety model, wherein stress from an unavoidable electroshock to the feet induces an elevation in cerebellar cGMP levels, which elevation is reduced or blocked by preadministration of anxiolytic compounds (Sethy and Oien (1991), Pharmacology Biochemistry & Behavior, vol. 39, pg. 379-382). Briefly, adult male CF-1 mice (25-30 g Harlan, Indianapolis, Ind.) are housed under a 12-hr light/dark cycle in a temperature and humidity controlled environment. Mice are habituated to the environment for at least 3 days and all studies are carried out between 9:00 AM and 12:00 noon to reduce the effects of diurnal fluctuations. Test mice are given a single intraperitoneal injection of test compound or control (vehicle is 3% DMSO, 20% emulphor stock, 10% lactic acid stock) and are sacrificed approximately 30 min. after dosing, using a beam of microwave radiation (microwave fixation system model GA5013; Gerling Applied Engineering, Modesto, Calif.) focused on the skull for 0.5 sec. at high power setting. This method preserves tissue cGMP content. After microwaving, a small piece (10-20 mg) of cerebellar cortex is quickly removed from the skull. The tissue is weighed and then homogenized in 2 ml of 1.0% perchloric acid. Tissue homogenate is kept on ice for 30 min followed by 5 min. in a boiling water bath. The homogenate is then centrifuged at 11,700 g for 20 min. 1 mL of supernatant is then acetylated with 40 μl of triethylamine and 20 μl of acetic anhydride, vortexed, and centrifuged at 13,000 g for 20 min at 4° C. Acetylated mouse cerebellum samples are stored at 4° C. pending cGMP analysis by radioimmunoassay with the cGMP ^125I Flash Plate radioimmunoassay test kit (PerkinElmer Life and Analytical Sciences, Boston, Mass.) on duplicate samples from each animal as per manufacturer's instructions.
For stressed mouse groups, 30 min. post injection, mice are subjected to a 1.0 mA foot-shock for 10 sec. in a Habitest Operant cage equipped with a modular shock floor (Habitest Modular Test System, Coulbourn Instruments, Allentown, Pa.). Mice are then sacrificed and cerebellar cortex samples are processed as described.
For each animal, cGMP levels are normalized to wet tissue weight and used to compute group averages and S.E.M. (typically 4-6 mice per group). All data are analyzed on the log scale to correct problems with heterogeneity of variance. Statistical analyses are performed using ANOVA followed by Dunnett's method to compare each treatment group to the vehicle group.

Male Sprague Dawley rats [1] = assay: Formalin model of persistent pain; assay type: in vivo; settings: formalin into hind paw
Procedure: The “formalin model” of persistent pain, particularly for inflammatory pain and neuropathic pain, is well known and can be used to test compounds for pain blocking and/or analgesic activity. (see Shibata M. et al., Pain (1989) 38: 347-352; and Tjolsen A. et al., Pain (1992) 51:5-17.)
Male Sprague Dawley rats (Harlan Labs, Indianapolis, Ind.) weighing between 200-250 g are maintained at constant temperature (21-23° C.) and light (12 hr. light/12 hr. dark), with free access to food and water for 7 days prior to testing. All testing is conducted during the light cycle after fasting over night and with the testing room temperature maintained at constant temperature (21-23° C.). […]
The animals are administered either vehicle or test compound and individually placed in holding cylinders. […] The cylinders are then placed on the load cells of the detection system and the response monitored continuously for 60 min. in 1-second bins (i.e. collections periods). As previously described by Jett and Michelson, the formalin-induced movements, “events,” detected by the system include licking and flinching the affected paw. […]
Data are evaluated by one-way analysis of variance (ANOVA) and the appropriate contrasts analyzed by the Dunnett ‘t’ test for 2-sided comparisons using JMP statistical analysis program (v5.1.1 SAS Institute Inc., Cary, N.C.). […]

5-HT7 receptor = target: T1, 5-HT7 receptor (Homo sapiens, UniProt P34969); assay: Functional antagonist assay: measurement of cAMP formation; assay type: cell-based
T1 construct: expressed in transfected cells; host or cells: AV-12 cells
T1 sequence (P34969 whole entry): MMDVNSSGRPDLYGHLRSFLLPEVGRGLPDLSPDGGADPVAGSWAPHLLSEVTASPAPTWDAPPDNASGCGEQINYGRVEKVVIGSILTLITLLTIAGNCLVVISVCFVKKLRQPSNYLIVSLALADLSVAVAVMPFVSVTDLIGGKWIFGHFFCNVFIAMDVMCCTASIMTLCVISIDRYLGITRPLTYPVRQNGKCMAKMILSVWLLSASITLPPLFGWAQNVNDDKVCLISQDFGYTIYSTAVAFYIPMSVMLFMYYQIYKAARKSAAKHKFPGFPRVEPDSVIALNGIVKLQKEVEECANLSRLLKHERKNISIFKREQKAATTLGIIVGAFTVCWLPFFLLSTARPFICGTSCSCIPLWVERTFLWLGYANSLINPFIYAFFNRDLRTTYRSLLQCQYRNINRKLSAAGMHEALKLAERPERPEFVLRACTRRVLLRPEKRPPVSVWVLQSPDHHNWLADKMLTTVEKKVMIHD
Procedure: For cAMP functional assays, the 5-HT7-expressing cells from above are grown in 150 cm^2 flasks and processed essentially as follows. The media is aspirated from the flasks and cells are washed with 1 mL PBS. The cells are trypsinized and resuspended in complete media. A sample of the cells is counted and the remainder is centrifuged as above for 3 min. The resulting cell pellet is resuspended in PBS at a concentration of 1×10^6 cells per mL and used directly in the cAMP assay as described.
The 5-HT7 receptor is functionally coupled to a G-protein as measured by the ability of serotonin and serotonergic drugs to stimulate cAMP production in CHO cells transfected with the 5-HT7 receptor. (Ruat, et al., Proceedings of the National Academy of Sciences (USA), 90:8547-8551, 1993.) Accordingly, functional receptor activity can be measured by measuring adenylate cyclase activity using a commercially available cell-based, homogeneous, time resolved fluorescence assay kit, as for example the kit produced by Cisbio-US, Inc. (Bedford, Mass.). Essentially, and using the protocol and reagents provided by the manufacturer, approximately 20,000 human 5-HT7 receptor-expressing AV-12 cells (as described above) are used with test compound dose concentrations in the range described for the binding assay. […] A cAMP standard curve is also run in every experiment. After the assay plates are read in an Envision™ instrument (Perkin-Elmer, Wellesley Mass.), the data is normalized to the standard curve and converted to percent inhibition for data analysis as described above for the receptor binding assay results. The Kb (nM) is calculated as a measure of the antagonist potency of the compound.

[2] = system: male Harlan Sprague-Dawley rats; assay: Animal model of dural plasma protein extravasation (PPE); assay type: in vivo; settings: saline controls approximately 2.0, full prevention approximately 1.0
From the text: The dural plasma protein extravasation model is an established model for migraine. The ability of a test compound to reduce extravasation of plasma proteins into the dura under assay conditions is considered indicative of the compound's ability to reduce or prevent the dural inflammation thought to be symptomatic of migraine. (see Johnson, K. W., et al., Neuroreport, 8 (1997) 2237-2240.)
To assay compounds for their ability to reduce or prevent dural plasma protein extravasation, male Harlan Sprague-Dawley rats (250-350 g) are anesthetized with sodium pentobarbital (65 mg/kg, i.p.) and placed in a stereotaxic frame (David Kopf Instruments) with the incisor bar set at −2.5 mm. Following a midline sagital scalp incision, 2 pairs of bilateral holes are drilled through the skull (3.2 mm posterially, 1.8 and 3.8 mm laterally, all coordinates referenced to bregma). […]
The amount of FITC-BSA for each sample is quantified with a fluorescence microscope (Zeiss) equipped with a grating monochromator, a spectrophotometer, and a computer driven stage. Fluorescence measurements are taken at 25 points in a 5×5 grid in 500 μm steps on each dural sample with an excitation wavelength of approximately 490 nm and emission intensity measured at approximately 535 nm. The mean and standard deviation of the 25 measurements are determined. […]

Male Sprague Dawley rats [3] = assay: L5/L6 nerve ligation model (Chung model) of persistent pain; assay type: in vivo; settings: i.p.
Procedure: The L5/L6 Nerve Ligation model (Chung model) is a well established model for persistent pain, specifically neuropathic pain. Surgery is performed on male Sprague Dawley rats (Harlan, Indianapolis, Ind.), weighing 150-200 g at the time of surgery as previously described (Kim and Chung, 1992). Briefly, neuropathic injury is produced by tightly ligating the left L5 and L6 spinal nerves under gas anesthesia with a mixture of isoflurane (3% for induction and 2% for maintenance) and O2. Following surgery, development of neuropathic pain is evaluated daily by measuring mechanical sensitivity of the injured paw to von Frey filaments with incremental bending forces (0.5-15 g) as described by (Chaplan et al., 1994). […] Test drug or vehicle is administered i.p. and the mechanical threshold for paw flinching is measured at 0.5, 1, 2, 3, 4 and 6 hr. after dosing. Measurement of the mechanical threshold for paw flinching is also done prior to surgery (preoperative control). Data are expressed as the threshold force required to elicit a response (g) as means±S.E.M. (standard error of the mean).

How did the “cerebellar cGMP, stress” value (adult male CF-1 mice; 1 mg/kg (ip, 30 min)/stress) turn out when `Cc1nnc2n1-c1ccc(Cl)cc1C(c1ccccc1)=NC2` [Alprazolam, alprazolam] was run?
Its value is 60* percent.

With `CNC1=Nc2ccc(Cl)cc2C(c2ccccc2)=[N+]([O-])C1` [Chlordiazepoxide, chlordiazepoxide] as the compound, how does the “cerebellar cGMP, stress” value (adult male CF-1 mice; 10 mg/kg (ip, 30 min)/stress) read?
The value was 129%.

And the “cerebellar cGMP, stress” value (adult male CF-1 mice; 30 mg/kg (ip, 30 min)/stress)?
Its value is 106* percent.

What about the “cerebellar cGMP, stress” value (adult male CF-1 mice; 60 mg/kg (ip, 30 min)/stress) of the same compound?
Its value is 71* percent.

Which “formalin-induced events, early and late phases” value (Male Sprague Dawley rats [1]) does the source give for `Cc1c(CN2CCN(c3nccnc3-c3ccc(F)cc3)CC2)cnn1-c1ccccc1.Cl` [Example 19, 4-(5-methyl-1-phenyl-1H-pyrazol-4-ylmethyl)-3′-(4-fluorophenyl)-3,4,5,6-tetrahydro-2H-[1,2′]bipyrazine hydrochloride] here?
Its value is “active on both the early and late phases”.

`Cl.Cn1cc(CN2CCN(c3cccnc3-c3ccc(F)cc3)CC2)cn1` [Example 74, 1-[2-(4-Fluoro-phenyl)-pyridin-3-yl]-4-(1-methyl-1H-pyrazol-4-ylmethyl)-piperazine hydrochloride] was tested. Which Kb (5-HT7 receptor; antagonist potency, cAMP, 5-HT7-expressing AV-12 cells) did it give?
Its Kb is ~44 nM.

And the “antagonist character at the 5-HT7 receptor” value (5-HT7 receptor; cAMP formation)?
The value was “full antagonist”.

What about the inhibition (5-HT7 receptor; cAMP formation, 5-HT7-expressing AV-12 cells) of the same compound?
Its inhibition is “about 96%”.

Which “ratio of extravasation in the dura, stimulated side over unstimulated side” value [2] does the source give for `Cc1c(CN2CCN(c3nccnc3-c3cccc(F)c3)CC2)cnn1C.Cl` [Example 127, 4-(1,5-Dimethyl-1H-pyrazol-4-ylmethyl)-3′-(3-fluoro-phenyl)-3,4,5,6-tetrahydro-2H-[1,2′]bipyrazinyl hydrochloride] here?
Its value is “about 1.16”.

Which “threshold force required to elicit a response (mechanical allodynia)” value (Male Sprague Dawley rats [3]) does the source give for `Cc1ccc(-c2nccnc2N2CCN(Cc3cn(C)nc3C)CC2)cc1.O=C(O)/C=C/C(=O)O` [Example 186, 4-(1,3-Dimethyl-1H-pyrazol-4-ylmethyl)-3′-(4-methylphenyl)-3,4,5,6-tetrahydro-2H-[1,2′]bipyrazine fumarate] here?
Its value is “active”.

What about the “cerebellar cGMP, stress” value (adult male CF-1 mice; 3 mg/kg (ip, 30 min)/stress) of the same compound?
Its value is 278%.

And the “cerebellar cGMP, stress” value (adult male CF-1 mice; 10 mg/kg (ip, 30 min)/stress)?
The value was 264%.

What about the “cerebellar cGMP, stress” value (adult male CF-1 mice; 30 mg/kg (ip, 30 min)/stress) of the same compound?
The value was 234%.

And the “cerebellar cGMP, stress” value (adult male CF-1 mice; 60 mg/kg (ip, 30 min)/stress)?
Its value is 117* percent.

Which “cerebellar cGMP, stress” value (adult male CF-1 mice; 3 mg/kg (ip, 30 min)/stress) does the source give for `CC1CCN(CC[C@H]2CCCN2S(=O)(=O)c2cccc(O)c2)CC1` [SB-269970] here?
Its value is 270%.

And the “cerebellar cGMP, stress” value (adult male CF-1 mice; 10 mg/kg (ip, 30 min)/stress)?
Its value is 225%.

What about the “cerebellar cGMP, stress” value (adult male CF-1 mice; 30 mg/kg (ip, 30 min)/stress) of the same compound?
The value was 171* percent.
